Counter-ions that a name gives are not always drawn.
Key:
[1] = reported value, organism not stated; cited from earlier work
[2] = Antibiotic release from the crosslinked bioelastomer constructs into PBS at 37° C, UV/Vis of supernatant; format: physicochemical; details: ELP 150 mg/ml
[3] = system: Bacillus subtilis (ATCC 6633); assay: Agar disk bioassay (zone of inhibition) of antibiotics released from the crosslinked bioelastomer constructs; format: cell-based; details: for active compound concentration corresponding to zone of inhibition: day 1 supernatant; for active compound concentration corresponding to zone of inhibition / active drug concentration corresponding to zone of inhibition: vs serial dilutions
Method: To determine if the eluted antibiotics remained active, bioassays were performed in triplicate, for a subset of samples, using Bacillus subtilis (ATCC 6633) for both vancomycin and cefazolin. Vancomycin supernatants from days 1, 7, 14, 21, and 28, as well as a sample of the final construct (following resolubilization) were tested against vancomycin serial dilutions of 5 mg/ml, 1 mg/ml, 0.5 mg/ml, 0.1 mg/ml, and 0.05 mg/ml. […] Bacterial suspensions were prepared in tryptic soy broth following the recommendations set forth by the manufacturer for Bacillus subtilis (Lyfo Disk, MicroBiologics, St. Cloud, Minn.). After 30 minutes of incubation at 37° C. the suspensions were swabbed onto petri dishes containing Mueller-Hinton agar. Twenty microliters of each supernatant were pipetted onto 6 mm filter paper disks applied to the surface of the agar. The plates were incubated for 18 hours at 37° C. After incubation, zones of inhibition were measured twice in two randomly chosen directions. Supernatants from ELP control samples were tested in this same manner.

Row | time in which the majority of cefazolin release took place ([2]; cefazolin-loaded ELP constructs) | Compound | minimal inhibitory concentration [1] [µg/mL] | active compound concentration corresponding to zone of inhibition ([3]; cefazolin released from crosslinked construct) [mg/mL] | active drug concentration corresponding to zone of inhibition ([3]; cefazolin released from crosslinked construct, day 3 supernatant) | zone of bacterial growth inhibition, biological activity of released cefazolin ([3]; supernatants of days 1-4 and final homogenized construct, all samples tested) | time period over which the ELP constructs release antibiotic ([2]; cefazolin-loaded ELP constructs, PBS 37° C, supernatant replaced days 1-10) [days] | time period over which the crosslinked ELP constructs release vancomycin ([2]; vancomycin-loaded crosslinked ELP constructs, PBS 37° C, supernatant replaced) [days] | zone of bacterial growth inhibition, biological activity of released vancomycin ([3]; all supernatants tested (days 1, 7, 14, 21, 28) and homogenized final sample) | active compound concentration corresponding to zone of inhibition ([3]; vancomycin released from crosslinked construct) [mg/mL] | active drug concentration corresponding to zone of inhibition ([3]; vancomycin released from crosslinked construct, day 7 supernatant)
1 | initial two or three days | Cc1nnc(SCC2=C(C(=O)[O-])N3C(=O)[C@@H](NC(=O)Cn4cnnn4)[C@H]3SC2)s1.[Na+] [cefazolin, cefazolin sodium salt] | 0.25 to 1 | ~2 | less than 0.5 mg/ml | biologically active |  |  |  |  | 
2 |  | CN[C@H](CC(C)C)C(=O)N[C@H]1C(=O)N[C@@H](CC(N)=O)C(=O)N[C@H]2C(=O)N[C@H]3C(=O)N[C@H](C(=O)N[C@H](C(=O)O)c4cc(O)cc(O)c4-c4cc3ccc4O)[C@H](O)c3ccc(c(Cl)c3)Oc3cc2cc(c3O[C@@H]2O[C@H](CO)[C@@H](O)[C@H](O)[C@H]2O[C@H]2C[C@](C)(N)[C@H](O)[C@H](C)O2)Oc2ccc(cc2Cl)[C@H]1O [vancomycin, vancomycin hydrochloride] | 1.5 to 3 |  |  |  | ≥ 10 | ≥ 28 | retained biological activity | ~1 | less than 0.1 mg/ml
